Here are results for four compounds from ChEMBL document CHEMBL1201862, “PubChem BioAssay data set” (2004).

For experiment [1], the target named is T1, Histone-lysine N-methyltransferase NSD2 (Homo sapiens, UniProt O96028).
T1 sequence (O96028 whole entry): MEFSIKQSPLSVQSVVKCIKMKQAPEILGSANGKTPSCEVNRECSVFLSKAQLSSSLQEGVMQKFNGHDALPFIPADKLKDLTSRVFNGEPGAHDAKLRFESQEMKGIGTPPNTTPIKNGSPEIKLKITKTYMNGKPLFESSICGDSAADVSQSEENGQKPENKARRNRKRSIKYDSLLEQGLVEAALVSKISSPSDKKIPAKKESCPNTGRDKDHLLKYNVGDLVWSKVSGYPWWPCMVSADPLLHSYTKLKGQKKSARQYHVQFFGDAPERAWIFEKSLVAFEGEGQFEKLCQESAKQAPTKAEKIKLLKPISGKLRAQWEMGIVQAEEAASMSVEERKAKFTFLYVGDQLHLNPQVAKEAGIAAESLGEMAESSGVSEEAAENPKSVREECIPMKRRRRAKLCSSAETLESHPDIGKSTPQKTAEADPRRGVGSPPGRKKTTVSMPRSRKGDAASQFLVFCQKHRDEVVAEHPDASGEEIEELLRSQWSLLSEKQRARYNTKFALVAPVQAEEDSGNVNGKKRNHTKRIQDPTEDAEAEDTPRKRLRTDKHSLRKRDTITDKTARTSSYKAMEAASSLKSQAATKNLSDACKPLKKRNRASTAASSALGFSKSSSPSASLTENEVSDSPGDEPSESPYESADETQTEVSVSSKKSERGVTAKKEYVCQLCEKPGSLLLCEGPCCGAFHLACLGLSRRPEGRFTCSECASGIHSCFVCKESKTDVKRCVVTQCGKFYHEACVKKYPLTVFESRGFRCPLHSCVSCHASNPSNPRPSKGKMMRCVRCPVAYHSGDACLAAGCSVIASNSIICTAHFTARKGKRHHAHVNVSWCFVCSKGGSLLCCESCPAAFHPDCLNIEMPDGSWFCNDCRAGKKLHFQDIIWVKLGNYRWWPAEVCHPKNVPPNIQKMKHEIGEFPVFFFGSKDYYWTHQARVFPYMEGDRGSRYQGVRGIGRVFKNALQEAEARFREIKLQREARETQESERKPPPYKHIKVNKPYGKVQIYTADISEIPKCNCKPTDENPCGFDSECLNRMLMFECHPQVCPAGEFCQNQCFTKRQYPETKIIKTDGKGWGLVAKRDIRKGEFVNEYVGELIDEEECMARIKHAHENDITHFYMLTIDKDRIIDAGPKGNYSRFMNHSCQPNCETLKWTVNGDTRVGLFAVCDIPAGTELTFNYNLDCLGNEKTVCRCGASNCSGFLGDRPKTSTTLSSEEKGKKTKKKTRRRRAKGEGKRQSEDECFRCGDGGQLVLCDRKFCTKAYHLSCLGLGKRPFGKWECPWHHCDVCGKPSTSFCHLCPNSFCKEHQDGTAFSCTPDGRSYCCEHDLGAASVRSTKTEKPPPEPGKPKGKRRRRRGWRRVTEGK
It counts as biochemical.

For another experiment, the target named is Genome polyprotein (dengue virus type 2, UniProt P29990). The experiment can be described thus: flavivirus cap methylation enzyme inhibition – biochemical, confirmation dose response, primary screen (AID 588689). It counts as functional.
Sequence of Genome polyprotein (P29990 2492-3391 limits assumed): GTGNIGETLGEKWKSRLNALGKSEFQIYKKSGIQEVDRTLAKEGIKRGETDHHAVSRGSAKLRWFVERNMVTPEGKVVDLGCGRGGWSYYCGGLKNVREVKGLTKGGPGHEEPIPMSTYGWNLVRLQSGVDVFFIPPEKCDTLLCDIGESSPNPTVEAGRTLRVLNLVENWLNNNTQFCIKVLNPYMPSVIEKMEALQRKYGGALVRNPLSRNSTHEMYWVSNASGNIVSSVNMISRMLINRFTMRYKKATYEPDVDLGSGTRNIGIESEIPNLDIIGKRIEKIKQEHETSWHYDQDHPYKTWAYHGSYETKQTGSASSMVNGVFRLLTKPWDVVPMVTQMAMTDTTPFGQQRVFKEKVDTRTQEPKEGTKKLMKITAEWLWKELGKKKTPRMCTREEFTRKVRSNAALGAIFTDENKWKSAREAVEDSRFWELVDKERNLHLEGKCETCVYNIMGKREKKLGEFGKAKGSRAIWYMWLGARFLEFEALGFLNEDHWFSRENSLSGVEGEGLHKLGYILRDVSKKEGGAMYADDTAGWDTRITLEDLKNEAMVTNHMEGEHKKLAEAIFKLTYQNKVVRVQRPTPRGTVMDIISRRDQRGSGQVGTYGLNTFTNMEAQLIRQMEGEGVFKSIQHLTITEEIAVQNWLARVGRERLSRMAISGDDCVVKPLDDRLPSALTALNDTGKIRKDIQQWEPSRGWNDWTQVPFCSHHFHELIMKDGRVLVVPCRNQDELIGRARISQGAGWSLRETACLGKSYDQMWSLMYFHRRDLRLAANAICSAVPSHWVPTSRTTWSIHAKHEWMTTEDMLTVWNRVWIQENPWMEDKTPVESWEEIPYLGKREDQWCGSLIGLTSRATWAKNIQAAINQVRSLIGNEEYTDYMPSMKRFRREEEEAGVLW
In experiment [2] the target is T2, Calpain-2 catalytic subunit (Sus scrofa, UniProt P43367).
T2 sequence (P43367 whole entry): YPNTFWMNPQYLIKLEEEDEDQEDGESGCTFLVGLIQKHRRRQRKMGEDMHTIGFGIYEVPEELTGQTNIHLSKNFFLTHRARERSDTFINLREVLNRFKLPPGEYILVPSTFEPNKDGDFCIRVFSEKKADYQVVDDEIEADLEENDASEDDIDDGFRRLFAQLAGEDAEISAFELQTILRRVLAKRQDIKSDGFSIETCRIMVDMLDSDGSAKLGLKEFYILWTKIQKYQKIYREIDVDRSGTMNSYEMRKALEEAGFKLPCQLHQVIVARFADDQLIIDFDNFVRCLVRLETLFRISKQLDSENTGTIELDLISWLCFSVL
The experiment can be described thus: m-calpain protease blockers, concentration series – biochemical, fluorogenic peptide substrate, dose response (AID 1420). Type of experiment: functional.

For experiment [3], the target named is RNA-editing ligase 1, mitochondrial (Trypanosoma brucei brucei, UniProt P86926). The experiment can be described thus: inhibition of trypanosome RNA editing ligase – biochemical, fluorescence, Trypanosoma brucei, dose response (AID 1117295). It counts as functional.
Sequence of RNA-editing ligase 1, mitochondrial (P86926 whole entry): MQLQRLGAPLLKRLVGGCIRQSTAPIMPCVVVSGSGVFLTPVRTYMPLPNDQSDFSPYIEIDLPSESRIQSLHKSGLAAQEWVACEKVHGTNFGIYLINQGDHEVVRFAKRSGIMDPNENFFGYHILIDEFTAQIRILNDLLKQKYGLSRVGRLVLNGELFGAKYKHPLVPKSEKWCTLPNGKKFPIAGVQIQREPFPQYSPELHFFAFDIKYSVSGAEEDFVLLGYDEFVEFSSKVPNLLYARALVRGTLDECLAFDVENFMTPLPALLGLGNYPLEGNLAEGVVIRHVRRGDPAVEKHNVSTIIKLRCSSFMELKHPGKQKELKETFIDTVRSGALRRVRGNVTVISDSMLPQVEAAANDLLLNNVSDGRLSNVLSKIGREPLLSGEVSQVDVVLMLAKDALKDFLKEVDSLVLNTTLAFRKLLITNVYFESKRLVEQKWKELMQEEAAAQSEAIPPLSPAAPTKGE
The target in experiment [4] is T3, RNA-binding protein pos-1 (Caenorhabditis elegans, UniProt G5EF15).
T3 sequence (G5EF15 whole entry): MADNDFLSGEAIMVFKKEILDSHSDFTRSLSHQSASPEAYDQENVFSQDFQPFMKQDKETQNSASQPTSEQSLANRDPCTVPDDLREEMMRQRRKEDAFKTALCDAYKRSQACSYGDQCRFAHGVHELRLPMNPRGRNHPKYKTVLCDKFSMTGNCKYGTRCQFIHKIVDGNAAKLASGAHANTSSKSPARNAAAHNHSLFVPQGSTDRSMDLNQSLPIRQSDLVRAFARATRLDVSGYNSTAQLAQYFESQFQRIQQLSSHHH
Kind of experiment: disruptors of C. elegans POS-1 RNA interaction – biochemical, fluorescence polarization, dose response (AID 1964).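 Note: purified POS-1 fused to maltose binding protein made in E. coli; potency of compounds blocking POS-1 binding to fluorescent RNA.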 In general terms: Fluorescence polarisation rises when a labelled molecule tumbles more slowly, as on binding a larger partner.

Experiment [5] concerns the target T4, Mannose-6-phosphate isomerase (Homo sapiens, UniProt P34949).
T4 sequence (P34949 whole entry): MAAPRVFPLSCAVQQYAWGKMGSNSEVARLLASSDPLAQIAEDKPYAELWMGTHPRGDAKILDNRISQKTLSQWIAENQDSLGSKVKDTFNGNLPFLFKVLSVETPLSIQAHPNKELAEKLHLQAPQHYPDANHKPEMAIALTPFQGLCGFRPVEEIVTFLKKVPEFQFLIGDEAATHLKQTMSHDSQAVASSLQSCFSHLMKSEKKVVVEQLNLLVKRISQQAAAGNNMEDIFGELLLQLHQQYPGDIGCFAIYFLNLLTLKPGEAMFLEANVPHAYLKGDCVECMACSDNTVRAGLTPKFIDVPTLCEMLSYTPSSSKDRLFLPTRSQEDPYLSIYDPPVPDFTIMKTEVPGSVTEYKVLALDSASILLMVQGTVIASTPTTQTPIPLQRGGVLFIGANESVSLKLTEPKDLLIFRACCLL
The experiment can be described thus: MPI inhibition at elevated mannose 6-phosphate – biochemical, fluorescence intensity, high mannose 6-phosphate, primary screen (AID 1220).

For experiment [6], the target named is T5, Zinc finger protein mex-5 (Caenorhabditis elegans, UniProt Q9XUB2).
T5 sequence (Q9XUB2 whole entry): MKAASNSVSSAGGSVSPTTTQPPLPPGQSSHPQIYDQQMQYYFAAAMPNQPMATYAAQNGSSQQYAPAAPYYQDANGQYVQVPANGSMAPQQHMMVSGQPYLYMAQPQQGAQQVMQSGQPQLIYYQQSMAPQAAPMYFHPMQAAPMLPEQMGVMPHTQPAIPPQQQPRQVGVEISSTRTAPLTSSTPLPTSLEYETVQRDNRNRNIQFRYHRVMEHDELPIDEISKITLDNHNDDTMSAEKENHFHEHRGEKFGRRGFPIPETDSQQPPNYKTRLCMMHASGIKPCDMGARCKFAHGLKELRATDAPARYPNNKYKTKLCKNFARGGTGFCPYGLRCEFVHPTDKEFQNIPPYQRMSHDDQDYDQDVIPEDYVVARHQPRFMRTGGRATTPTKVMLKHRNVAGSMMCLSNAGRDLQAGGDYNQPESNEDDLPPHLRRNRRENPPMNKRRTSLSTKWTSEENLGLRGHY
The experiment can be described thus: potency of MEX-5 RNA-binding blockers – biochemical, C. elegans, fluorescence polarization, dose response (AID 1960).

For experiment [7], the target named is T6, Carboxy-terminal domain RNA polymerase II polypeptide A small phosphatase 1 (Homo sapiens, UniProt Q9GZU7).
T6 sequence (Q9GZU7 whole entry): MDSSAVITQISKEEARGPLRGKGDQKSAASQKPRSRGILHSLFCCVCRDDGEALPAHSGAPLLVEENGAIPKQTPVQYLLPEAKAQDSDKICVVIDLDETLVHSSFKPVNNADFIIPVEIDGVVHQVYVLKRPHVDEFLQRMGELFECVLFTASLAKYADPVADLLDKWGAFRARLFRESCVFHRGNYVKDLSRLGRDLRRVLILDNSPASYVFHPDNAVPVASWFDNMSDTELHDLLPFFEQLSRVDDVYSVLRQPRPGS
The experiment can be described thus: CTDSP1 inhibitors, concentration-response, biochemical, absorbance readout, ultra-high-throughput screen actives (AID 540297). It counts as functional.

A further experiment deals with T7, Aminopeptidase N (Plasmodium falciparum FcB1/Columbia, UniProt O96935).
T7 sequence (O96935 whole entry): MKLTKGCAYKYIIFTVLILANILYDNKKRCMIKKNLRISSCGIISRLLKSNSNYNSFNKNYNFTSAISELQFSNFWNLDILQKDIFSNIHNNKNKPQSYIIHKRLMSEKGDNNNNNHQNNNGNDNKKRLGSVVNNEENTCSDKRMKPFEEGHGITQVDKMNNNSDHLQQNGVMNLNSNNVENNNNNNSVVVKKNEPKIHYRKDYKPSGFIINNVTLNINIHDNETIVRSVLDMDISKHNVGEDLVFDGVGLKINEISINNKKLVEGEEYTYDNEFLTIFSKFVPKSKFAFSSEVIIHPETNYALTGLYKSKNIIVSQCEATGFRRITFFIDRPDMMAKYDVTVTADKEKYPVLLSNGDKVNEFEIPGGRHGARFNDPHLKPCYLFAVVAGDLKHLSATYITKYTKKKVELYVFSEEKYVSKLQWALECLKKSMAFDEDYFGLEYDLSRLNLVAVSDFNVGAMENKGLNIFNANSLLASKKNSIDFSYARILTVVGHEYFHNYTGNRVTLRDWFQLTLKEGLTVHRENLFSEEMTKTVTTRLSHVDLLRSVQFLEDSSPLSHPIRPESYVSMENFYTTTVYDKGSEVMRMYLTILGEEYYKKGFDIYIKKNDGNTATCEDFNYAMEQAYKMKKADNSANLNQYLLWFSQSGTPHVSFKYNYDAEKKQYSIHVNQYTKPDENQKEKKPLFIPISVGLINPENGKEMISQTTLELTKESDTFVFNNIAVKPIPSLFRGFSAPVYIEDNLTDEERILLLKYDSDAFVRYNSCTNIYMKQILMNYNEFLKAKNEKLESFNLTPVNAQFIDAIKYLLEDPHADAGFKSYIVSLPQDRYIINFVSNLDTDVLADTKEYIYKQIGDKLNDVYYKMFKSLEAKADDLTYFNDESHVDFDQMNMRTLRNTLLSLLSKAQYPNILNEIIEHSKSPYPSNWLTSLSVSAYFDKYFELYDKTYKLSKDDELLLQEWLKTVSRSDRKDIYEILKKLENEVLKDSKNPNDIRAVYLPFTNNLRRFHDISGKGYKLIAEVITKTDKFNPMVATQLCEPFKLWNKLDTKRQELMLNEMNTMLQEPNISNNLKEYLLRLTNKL
Kind of experiment: malaria alanyl aminopeptidase activity blockers – biochemical, fluorogenic H-Leu-NHMec substrate, 1536-well (AID 1445). Also noted: species or system Plasmodium falciparum 3D7, 3D7.

A short description of experiment [8]: fluconazole-exposed Candida albicans growth modulators – fluorescence, retest, confirmation (AID 2467). Type of experiment: functional, cell-based.
Experiment [9] is described as follows: NIH-3T3 fibroblast cytotoxicity, dose response, cytotoxicity control, cell-based, fluorescence, Alamar Blue, secondary assay (AID 2327).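 Note: NIH-3T3 mouse fibroblasts cultured with fluconazole at 8 µg/mL.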 It counts as functional. For orientation: Alamar Blue is a resazurin reagent that responds to reducing activity.
The target of experiment [10] is Bifunctional protein GlmU (Mycobacterium tuberculosis, UniProt P9WMN3). The experiment can be described thus: Inhibitors of Mycobacterial Glucosamine-1-phosphate acetyl transferase (GlmU). Secondary screen. Also noted: species or system Mycobacterium tuberculosis H37Rv.
Sequence of Bifunctional protein GlmU (P9WMN3 whole entry): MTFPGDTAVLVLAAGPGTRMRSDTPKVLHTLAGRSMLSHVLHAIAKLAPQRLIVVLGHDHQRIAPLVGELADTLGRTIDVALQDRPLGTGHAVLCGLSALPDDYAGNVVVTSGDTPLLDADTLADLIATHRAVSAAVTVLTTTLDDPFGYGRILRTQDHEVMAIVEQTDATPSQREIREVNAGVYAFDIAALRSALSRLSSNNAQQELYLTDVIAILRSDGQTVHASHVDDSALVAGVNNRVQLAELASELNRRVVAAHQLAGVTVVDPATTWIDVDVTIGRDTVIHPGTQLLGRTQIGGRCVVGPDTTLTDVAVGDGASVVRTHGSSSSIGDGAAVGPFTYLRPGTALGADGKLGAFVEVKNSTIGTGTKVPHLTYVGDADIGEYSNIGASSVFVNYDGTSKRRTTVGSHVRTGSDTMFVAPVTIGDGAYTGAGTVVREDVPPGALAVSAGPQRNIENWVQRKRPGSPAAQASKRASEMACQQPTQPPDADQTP
Experiment [11] is described as follows: viability loss in human Jurkat cells – cell-based, luminescence, cytotoxicity control for P. falciparum gametocyte viability project, dose response (AID 1117277).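 Note: potency reflects loss of cellular ATP meaning fewer viable cells.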 It counts as functional.
Experiment [12] is described as follows: viability inhibitors of stage V gametocytes – luminescence, dose response (AID 1117278).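 Note: gametocytes exposed to compound for 24 hours.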 It counts as functional, cell-based.
A short description of experiment [13]: glucagon-like peptide-1 release potency in STC-1, concentration-response, half-maximal inhibitory concentration in the STC-1 line (AID 1117345). Type of experiment: functional, cell-based.
Experiment [14] can be described thus: Potency on glucagon-like peptide 1 release, dose-response in NCI-H716 cell line, half maximal inhibitory concentration (AID 1117344). It counts as functional, cell-based.

The source made the active and inactive calls. Some results are limits rather than exact numbers.

For the compound `CCOC(=O)c1ccc(CC(=O)c2ccc(O)c(O)c2O)o1`, in [1], the AC50 (as a rule, the concentration at which the activity in the assay is half-maximal) was 17.3 µM (active). Further, the IC50 (usually the point on the concentration scale where inhibition reaches its midpoint) on Genome polyprotein is 33.6 µM (active); in experiment [2] it was > 50 µM (not active); in [3], > 96.6 µM (inactive); in [5], 19.4 µM (active). Moreover, the results for the EC50 in [4] and in experiment [6] were 35.5 µM (active) and 0.868 µM (active), respectively.

On to `COC(=O)c1ccc(N2NC(=O)/C(=C/c3ccc(-c4ccc(Cl)c(C(=O)O)c4)o3)C2=O)cc1`, for which the IC50 is 2.15 µM (active) in [7], 28.6 µM (active) at Aminopeptidase N, 11.9 µM (active) at Genome polyprotein and 75.8 µM (active) in experiment [10]. Also, the results for the half-maximal effective concentration (EC50) in [8] and in [9] were > 38 µM (not active) and > 150 µM (inconclusive), respectively.

Regarding `CSc1nccc(-c2cc(Cl)sc2Cl)n1`, the IC50 was > 83.3 µM (inactive) in experiment [11] and > 109 µM (inactive) in experiment [12].

Regarding `CC(C)(C)CC(C)(C)c1ccc(O)cc1`, the IC50 in experiment [13] was 8.37 µM (inactive); in experiment [14] it was 25.9 µM (inactive).
